According to patent US20250195510A1, “NOVEL METHODS” (priority 2022, published 2025):

Experiments:
[1] = tested on: Sprague-Dawley rats; experiment: Novelty Suppressed Feeding Test (NSFT); type: in vivo, rat; details: naïve rats, Luma 1 mg/kg IP days 1 and 3, no LPS; control 657.8
Experimental: (§1) Behavioral Evaluation. All behavioral tests are performed in the morning with adult male Sprague-Dawley rats (n=9-11 per group for the experiments with LPS, and n=13-14 per group for the naïve rats).
Novelty Suppressed Feeding Test (NSFT). This test measures consumption of a familiar food in a novel environment, relying on rodents' aversion to eating in a novel environment after a period of food deprivation (Ramaker and Dulawa, “Identifying fast-onset antidepressants using rodent models,” Mol. Psychiatry 22:656-665 (2017)). Rats are food-deprived overnight and placed in an open field (76.5×76.5×40 cm^3) with a small amount of food pellets (6 pellets total). At the time of the test, rats are exposed to the open field for the first time (novelty) and allowed to explore it for a maximum of 15 minutes under red light. The latency for the animal to approach the food pellets and take its first bite is manually scored. A home cage feeding test (HCFT) is performed afterwards to ensure latency measured in NSFT is not a matter of difference in hunger. A home cage food intake analysis evaluated the amount of food eaten (in grams) over a period of 10 minutes following the end of the entire test session.
Basal levels of anxiety are also tested using 2 commonly used tests, NSFT and novelty induced hypophagia (NIH), in the absence of LPS. […]

[2] = tested on: Sprague-Dawley rats; experiment: Novelty Induced Hypophagia (NIH); type: in vivo, rat; details: naïve rats, Luma 1 mg/kg IP days 1 and 3; control 65.4
Experimental: as §1
Novelty Induced Hypophagia (NIH). This conflict-based behavioral task assesses the impact of environmental stressors on conditioned approach response for a palatable food reward (Ramaker and Dulawa, 2017). Rats are habituated with diluted (1:3 milk/water) sweetened condensed milk which is accessible in their home cage for 1 hour each day for 3 consecutive days. Initially, animals are tested in their home cage under normal lighting. For testing after drug treatment, the latency to drink is recorded after rats are placed in a novel clean cage of the same dimensions with no bedding and under dim lighting (˜50 lux) with white paper under the cages to enhance aversion.
Basal levels of anxiety are also tested using 2 commonly used tests, NSFT and novelty induced hypophagia (NIH), in the absence of LPS. It is well documented that rodents experience increased stress levels when placed in a novel environment (Ramaker and Dulawa, 2017). These two tests exploit this feature by measuring latency to feed in food-deprived rats (NSFT), or latency to receive a reward to which they have been habituated prior to the test (NIH).

CN1CCN2c3c(cccc31)[C@@H]1CN(CCCC(=O)c3ccc(F)cc3)CC[C@@H]12 [Lumateperone, 4-((6bR,10aS)-3-methyl-2,3,6b,9,10,10a-hexahydro-1H-pyrido[3′,4′: 4,5]pyrrolo[1,2,3-de]quinoxaline-8 (7H)-yl)-1-(4-fluorophenyl)-1-butanone]
NSFT latency to feed [1]: 507.9 s
NIH - novel cage latency to drink [2]: 30.5 s
